Assay results as given in patent US20240132521A1, “COMPOUNDS AND METHODS FOR MODULATING HER2” (Iambic Therapeutics, Inc., priority 2022, published 2024).
Read-outs that look alike come from different tables or passages of the source.

Assays:
Assay type in all cases: cell-based
BaF3_HER2YVMA cells = BaF3_HER2YVMA cells (Homo sapiens, UniProt P04626, DUP772-775, cells depend on it); experiment: Cell growth inhibition assay (CellTiterGlo), BaF3_HER2YVMA
BaF3_HER2WT cells = BaF3_HER2WT cells (Homo sapiens, UniProt P04626); experiment: Cell growth inhibition assay (CellTiterGlo), BaF3_HER2WT
BaF3_EGFRWT cells = BaF3_EGFRWT cells (Homo sapiens, UniProt P00533); experiment: Cell growth inhibition assay (CellTiterGlo), BaF3_EGFRWT
[1] = cell growth inhibition, 3 days treatment, read-out: HER2 - YVMA IC50
[2] = cell growth inhibition, 3 days treatment, read-out: HER2 WT IC50
[3] = cell growth inhibition, 80 ng/mL EGF, 3 days treatment, read-out: EGFR WT IC50
[4] = 3-day treatment, CellTiterGlo, read-out: Cell growth inhibition activity, HER2 - YVMA
[5] = 3-day treatment, CellTiterGlo, read-out: Cell growth inhibition activity, HER2 WT
[6] = 3-day treatment, CellTiterGlo, read-out: Cell growth inhibition activity, EGFR WT

Chain of BaF3_HER2WT cells (P04626 whole entry, change not shown): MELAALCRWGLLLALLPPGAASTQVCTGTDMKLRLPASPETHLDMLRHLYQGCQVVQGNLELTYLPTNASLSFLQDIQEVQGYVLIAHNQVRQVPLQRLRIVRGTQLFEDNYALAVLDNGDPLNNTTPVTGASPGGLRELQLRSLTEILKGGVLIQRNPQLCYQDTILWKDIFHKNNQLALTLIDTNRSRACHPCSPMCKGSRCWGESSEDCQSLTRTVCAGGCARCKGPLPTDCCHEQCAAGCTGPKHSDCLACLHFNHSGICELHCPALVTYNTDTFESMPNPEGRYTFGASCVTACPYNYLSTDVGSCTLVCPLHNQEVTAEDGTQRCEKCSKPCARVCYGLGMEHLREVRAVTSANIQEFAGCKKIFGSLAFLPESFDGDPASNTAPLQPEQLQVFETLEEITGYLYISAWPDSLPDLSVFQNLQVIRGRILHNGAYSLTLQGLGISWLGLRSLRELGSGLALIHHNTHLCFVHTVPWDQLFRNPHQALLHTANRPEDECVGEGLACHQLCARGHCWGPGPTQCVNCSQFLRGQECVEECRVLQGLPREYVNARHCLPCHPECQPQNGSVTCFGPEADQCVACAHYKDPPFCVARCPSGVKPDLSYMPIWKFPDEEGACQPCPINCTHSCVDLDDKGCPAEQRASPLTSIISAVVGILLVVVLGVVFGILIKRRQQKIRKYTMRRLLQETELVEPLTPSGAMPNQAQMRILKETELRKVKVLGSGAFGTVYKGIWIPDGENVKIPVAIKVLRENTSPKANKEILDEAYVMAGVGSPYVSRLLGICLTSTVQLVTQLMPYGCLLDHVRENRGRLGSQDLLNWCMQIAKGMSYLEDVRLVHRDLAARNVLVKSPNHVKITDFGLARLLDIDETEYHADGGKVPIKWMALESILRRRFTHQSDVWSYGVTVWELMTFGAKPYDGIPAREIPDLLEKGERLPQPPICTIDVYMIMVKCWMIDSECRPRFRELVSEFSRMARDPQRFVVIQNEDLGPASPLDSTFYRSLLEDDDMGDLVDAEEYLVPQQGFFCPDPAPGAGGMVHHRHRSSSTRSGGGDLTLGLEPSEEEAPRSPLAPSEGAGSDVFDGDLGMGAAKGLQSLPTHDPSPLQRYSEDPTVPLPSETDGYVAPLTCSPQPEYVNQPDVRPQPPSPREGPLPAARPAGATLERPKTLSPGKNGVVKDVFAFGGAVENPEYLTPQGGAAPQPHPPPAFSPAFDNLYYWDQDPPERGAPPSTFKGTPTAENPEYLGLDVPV
Chain of BaF3_EGFRWT cells (P00533 whole entry, change not shown): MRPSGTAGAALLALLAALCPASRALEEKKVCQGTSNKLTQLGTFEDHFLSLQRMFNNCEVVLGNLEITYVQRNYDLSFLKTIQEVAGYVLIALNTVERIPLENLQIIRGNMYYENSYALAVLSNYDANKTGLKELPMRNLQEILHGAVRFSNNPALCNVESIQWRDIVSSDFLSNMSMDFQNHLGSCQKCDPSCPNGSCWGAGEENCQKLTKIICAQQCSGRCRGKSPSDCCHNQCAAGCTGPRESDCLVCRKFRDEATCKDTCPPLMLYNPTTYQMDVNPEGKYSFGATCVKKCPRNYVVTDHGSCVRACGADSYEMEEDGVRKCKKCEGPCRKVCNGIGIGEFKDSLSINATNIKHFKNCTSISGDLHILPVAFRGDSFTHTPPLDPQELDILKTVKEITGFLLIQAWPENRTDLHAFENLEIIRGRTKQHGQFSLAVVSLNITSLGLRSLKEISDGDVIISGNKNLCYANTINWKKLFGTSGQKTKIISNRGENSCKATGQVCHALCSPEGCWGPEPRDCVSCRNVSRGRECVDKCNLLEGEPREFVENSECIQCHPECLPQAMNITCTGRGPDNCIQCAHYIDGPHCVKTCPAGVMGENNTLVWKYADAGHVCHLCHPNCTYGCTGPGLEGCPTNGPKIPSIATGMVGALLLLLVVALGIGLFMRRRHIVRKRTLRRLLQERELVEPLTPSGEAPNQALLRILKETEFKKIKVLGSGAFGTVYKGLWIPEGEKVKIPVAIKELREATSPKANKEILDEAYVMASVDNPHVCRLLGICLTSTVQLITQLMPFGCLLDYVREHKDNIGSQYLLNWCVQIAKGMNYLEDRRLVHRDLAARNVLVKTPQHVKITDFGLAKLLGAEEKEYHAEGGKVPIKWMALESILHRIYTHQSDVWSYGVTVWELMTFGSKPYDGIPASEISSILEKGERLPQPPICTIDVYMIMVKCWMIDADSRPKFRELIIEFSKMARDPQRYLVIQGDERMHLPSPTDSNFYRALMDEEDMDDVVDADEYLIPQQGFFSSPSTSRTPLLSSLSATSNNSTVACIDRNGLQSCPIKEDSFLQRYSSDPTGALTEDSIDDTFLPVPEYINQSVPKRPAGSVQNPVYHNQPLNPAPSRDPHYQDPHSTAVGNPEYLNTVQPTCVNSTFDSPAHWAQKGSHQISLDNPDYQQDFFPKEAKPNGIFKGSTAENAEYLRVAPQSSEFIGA
Chain of BaF3_HER2YVMA cells (P04626 with tags, fused parts or gaps DUP772-775): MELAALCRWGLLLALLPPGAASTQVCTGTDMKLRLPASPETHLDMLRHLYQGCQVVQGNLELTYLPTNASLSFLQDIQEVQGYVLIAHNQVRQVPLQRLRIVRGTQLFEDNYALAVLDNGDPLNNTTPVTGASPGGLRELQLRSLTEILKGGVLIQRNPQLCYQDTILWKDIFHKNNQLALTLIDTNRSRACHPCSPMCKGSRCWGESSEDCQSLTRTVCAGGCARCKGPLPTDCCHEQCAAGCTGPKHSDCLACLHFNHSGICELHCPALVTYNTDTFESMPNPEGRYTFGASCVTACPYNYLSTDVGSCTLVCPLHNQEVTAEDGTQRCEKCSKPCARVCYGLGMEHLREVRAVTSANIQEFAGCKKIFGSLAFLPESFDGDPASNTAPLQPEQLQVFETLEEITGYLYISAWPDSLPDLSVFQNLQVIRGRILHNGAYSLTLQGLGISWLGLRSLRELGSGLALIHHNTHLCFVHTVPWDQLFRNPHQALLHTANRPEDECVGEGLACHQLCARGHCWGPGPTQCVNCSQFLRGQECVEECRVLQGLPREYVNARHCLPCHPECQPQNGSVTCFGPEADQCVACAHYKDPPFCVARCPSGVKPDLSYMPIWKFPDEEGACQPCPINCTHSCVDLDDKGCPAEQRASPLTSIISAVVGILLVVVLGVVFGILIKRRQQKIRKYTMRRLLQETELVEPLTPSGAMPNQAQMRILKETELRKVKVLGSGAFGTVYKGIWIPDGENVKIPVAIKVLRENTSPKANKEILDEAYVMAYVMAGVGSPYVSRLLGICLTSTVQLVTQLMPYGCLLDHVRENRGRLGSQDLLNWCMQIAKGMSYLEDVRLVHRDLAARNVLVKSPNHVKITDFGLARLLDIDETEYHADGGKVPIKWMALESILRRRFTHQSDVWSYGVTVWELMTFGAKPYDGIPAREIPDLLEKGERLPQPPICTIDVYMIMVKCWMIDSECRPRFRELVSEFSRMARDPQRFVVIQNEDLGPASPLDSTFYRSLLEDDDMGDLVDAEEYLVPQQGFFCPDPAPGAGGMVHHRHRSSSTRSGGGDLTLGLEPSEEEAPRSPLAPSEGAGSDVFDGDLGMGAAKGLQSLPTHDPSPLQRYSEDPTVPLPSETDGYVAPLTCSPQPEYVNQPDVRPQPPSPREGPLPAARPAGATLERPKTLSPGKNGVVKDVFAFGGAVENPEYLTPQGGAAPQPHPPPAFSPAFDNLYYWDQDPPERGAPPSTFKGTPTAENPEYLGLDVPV

SMILES	GI50 (BaF3_HER2YVMA cells; [1]) [nM]	GI50 (BaF3_HER2WT cells; [2]) [nM]	GI50 (BaF3_EGFRWT cells; [3]) [nM]	GI50 (BaF3_HER2YVMA cells; [4]) [nM]	GI50 (BaF3_HER2WT cells; [5]) [nM]	GI50 (BaF3_EGFRWT cells; [6]) [nM]
Cc1cc(Nc2ncnn3ccc(C4CC5CCC4CN5C(=O)/C=C/CN(C)C)c23)ccc1Oc1ccn2ncnc2c1 (single isomer, unassigned; first eluting) [Examples 137 and 138, first eluting isomer]	200 to 500	< 200	1500 to 5000	–	–	–
C=CC(=O)N1CC(c2ccn3ncnc(Nc4ccc(Oc5ccn6ncnc6c5)c(C)c4)c23)C1 [Example 3, 1-(3-(4-((4-([1,2,4]triazolo[1,5-a]pyridin-7-yloxy)-3-methylphenyl)amino)pyrrolo[2,1-f][1,2,4]triazin-5-yl)azetidin-1-yl)prop-2-en-1-one]	–	–	–	< 200	< 200	500 to 1500
C=CC(=O)N1CC2(C1)CN(c1ccn3ncnc(Nc4cnc(Oc5ccn6ncnc6c5)c(Cl)c4)c13)C2 [Example 15, 1-(6-(4-((6-([1,2,4]triazolo[1,5-a]pyridin-7-yloxy)-5-chloropyridin-3-yl)amino)pyrrolo[2,1-f][1,2,4]triazin-5-yl)-2,6-diazaspiro[3.3]heptan-2-yl)prop-2-en-1-one]	–	–	–	> 5000	1500 to 5000	1500 to 5000
C=CC(=O)N1CC2(CC(c3ccn4ncnc(Nc5ccc(Oc6ccn7ncnc7c6)c(C)c5)c34)C2)C1 [Example 17, 1-(6-(4-((4-([1,2,4]triazolo[1,5-a]pyridin-7-yloxy)-3-methylphenyl)amino)pyrrolo[2,1-f][1,2,4]triazin-5-yl)-2-azaspiro[3.3]heptan-2-yl)prop-2-en-1-one]	–	–	–	< 200	< 200	1500 to 5000
C=C(C(=O)O)C(=O)N1CCC(c2ccn3ncnc(Nc4ccc(Oc5ccn6ncnc6c5)c(C)c4)c23)CC1 [Example 20, 2-(4-(4-((4-([1,2,4]triazolo[1,5-a]pyridin-7-yloxy)-3-methylphenyl)amino)pyrrolo[2,1-f][1,2,4]triazin-5-yl)piperidine-1-carbonyl)acrylic acid]	–	–	–	1500 to 5000	1500 to 5000	1500 to 5000
C=C(F)C(=O)N1CC=C(c2ccn3ncnc(Nc4ccc(Oc5ccn6ncnc6c5)c(C)c4)c23)CC1 [Example 26, 1-(4-(4-((4-([1,2,4]triazolo[1,5-a]pyridin-7-yloxy)-3-methylphenyl)amino)pyrrolo[2,1-f][1,2,4]triazin-5-yl)-3,6-dihydropyridin-1(2H)-yl)-2-fluoroprop-2-en-1-one]	–	–	–	1500 to 5000	200 to 500	1500 to 5000
C=C(C#N)C(=O)N1CCC(c2ccn3ncnc(Nc4ccc(Oc5ccn6ncnc6c5)c(C)c4)c23)CC1 [Example 27, 2-(4-(4-((4-([1,2,4]triazolo[1,5-a]pyridin-7-yloxy)-3-methylphenyl)amino)pyrrolo[2,1-f][1,2,4]triazin-5-yl)piperidine-1-carbonyl)acrylonitrile]	–	–	–	1500 to 5000	500 to 1500	1500 to 5000
C=CC(=O)N1CC=C(c2ccn3ncnc(Nc4ccc(Oc5ccn6ncnc6c5)c(C)c4)c23)C1 [Example 28, 1-(3-(4-((4-([1,2,4]triazolo[1,5-a]pyridin-7-yloxy)-3-methylphenyl)amino)pyrrolo[2,1-f][1,2,4]triazin-5-yl)-2,5-dihydro-1H-pyrrol-1-yl)prop-2-en-1-one acetate]	–	–	–	500 to 1500	< 200	1500 to 5000
Cc1cc(Nc2ncnn3ccc(C4=CCN(C(=O)/C=C/CN(C)C)C4)c23)ccc1Oc1ccn2ncnc2c1 [Example 29, (E)-1-(3-(4-((4-([1,2,4]triazolo[1,5-a]pyridin-7-yloxy)-3-methylphenyl)amino)pyrrolo[2,1-f][1,2,4]triazin-5-yl)-2,5-dihydro-1H-pyrrol-1-yl)-4-(dimethylamino)but-2-en-1-one acetate]	–	–	–	1500 to 5000	< 200	1500 to 5000
C=C(CN(C)C)C(=O)N1C2C=C(c3ccn4ncnc(Nc5ccc(Oc6ccn7ncnc7c6)c(C)c5)c34)CC1CC2 (stereo not drawn) [Example 30, 1-(3-(4-((4-([1,2,4]triazolo[1,5-a]pyridin-7-yloxy)-3-methylphenyl)amino)pyrrolo[2,1-f][1,2,4]triazin-5-yl)-8-azabicyclo[3.2.1]oct-2-en-8-yl)-2-((dimethylamino)methyl)prop-2-en-1-one acetate]	–	–	–	< 200	< 200	1500 to 5000
Cc1cc(Nc2ccn3ncnc(C4CC5CCC(C4)N5C(=O)/C=C/CN(C)C)c23)ccc1Oc1ccn2cnnc2c1 (stereo not drawn) [Example 33, (E)-1-(3-(5-((4-([1,2,4]triazolo[4,3-a]pyridin-7-yloxy)-3-methylphenyl)amino)pyrrolo[2,1-f][1,2,4]triazin-4-yl)-8-azabicyclo[3.2.1]octan-8-yl)-4-(dimethylamino)but-2-en-1-one acetate]	–	–	–	200 to 500	< 200	1500 to 5000
Cc1cc(Nc2ncnn3ccc(C4CN(C(=O)/C=C/CN5CCOCC5)C4)c23)ccc1Oc1ccn2ncnc2c1 [Example 37, (E)-1-(3-(4-((4-([1,2,4]triazolo[1,5-a]pyridin-7-yloxy)-3-methylphenyl)amino)pyrrolo[2,1-f][1,2,4]triazin-5-yl)azetidin-1-yl)-4-morpholinobut-2-en-1-one]	–	–	–	< 200	< 200	1500 to 5000

The remaining lines, values ahead:

GI50 (BaF3_HER2YVMA cells; [1]) [nM]	GI50 (BaF3_HER2WT cells; [2]) [nM]	GI50 (BaF3_EGFRWT cells; [3]) [nM]	GI50 (BaF3_HER2YVMA cells; [4]) [nM]	GI50 (BaF3_HER2WT cells; [5]) [nM]	GI50 (BaF3_EGFRWT cells; [6]) [nM]	SMILES
< 200	< 200	500 to 1500	–	–	–	Cc1cc(Nc2ncnn3ccc(C4CCCN(C(=O)C(F)Cl)CC4)c23)ccc1Oc1ccn2ncnc2c1 (single isomer, unassigned) [Examples 145, 146, 147 and 148, second eluting isomer, 1-(4-(4-((4-([1,2,4]triazolo[1,5-a]pyridin-7-yloxy)-3-methylphenyl)amino)pyrrolo[2,1-f][1,2,4]triazin-5-yl)azepan-1-yl)-2-chloro-2-fluoroethan-1-one]
500 to 1500	200 to 500	1500 to 5000	–	–	–	Cc1cc(Nc2ncnn3ccc(C4CCCN(C(=O)C(F)Cl)CC4)c23)ccc1Oc1ccn2ncnc2c1 (single isomer, unassigned) [Examples 145, 146, 147 and 148, third eluting isomer, 1-(4-(4-((4-([1,2,4]triazolo[1,5-a]pyridin-7-yloxy)-3-methylphenyl)amino)pyrrolo[2,1-f][1,2,4]triazin-5-yl)azepan-1-yl)-2-chloro-2-fluoroethan-1-one]
< 200	< 200	1500 to 5000	–	–	–	Cc1cc(Nc2ncnn3ccc(C4CN(C(=O)/C=C/C5CCCN5C)C4)c23)ccc1Oc1ccn2ncnc2c1 (single isomer, unassigned) [Examples 171 and 172, second eluting isomer, (E)-1-(3-(4-((4-([1,2,4]triazolo[1,5-a]pyridin-7-yloxy)-3-methylphenyl)amino)pyrrolo[2,1-f][1,2,4]triazin-5-yl)azetidin-1-yl)-3-(1-methylpyrrolidin-2-yl)prop-2-en-1-one]
1500 to 5000	200 to 500	1500 to 5000	–	–	–	Cc1cc(Nc2ncnn3ccc(C4CCN(C(=O)[C@H](F)Cl)CC4)c23)ccc1Oc1ccn2ncnc2c1 (single isomer, unassigned) [Examples 173 and 174, first eluting isomer]
< 200	< 200	1500 to 5000	–	–	–	Cc1cc(Nc2ncnn3ccc(C4CCN(C(=O)[C@@H](F)Cl)CC4)c23)ccc1Oc1ccn2ncnc2c1 (single isomer, unassigned; second eluting) [Examples 173 and 174, second eluting isomer, (5)-1-(4-(4-((4-([1,2,4]triazolo[1,5-a]pyridin-7-yloxy)-3-methylphenyl)amino)pyrrolo[2,1-f][1,2,4]triazin-5-yl)piperidin-1-yl)-2-chloro-2-fluoroethan-1-one]
–	–	–	< 200	< 200	200 to 500	C=CC(=O)N1CCCC(c2ccn3ncnc(Nc4ccc(Oc5ccn6ncnc6c5)c(C)c4)c23)CC1 (stereo not drawn) [Example 9, 1-(4-(4-((4-([1,2,4]triazolo[1,5-a]pyridin-7-yloxy)-3-methylphenyl)amino)pyrrolo[2,1-f][1,2,4]triazin-5-yl)azepan-1-yl)prop-2-en-1-one]
–	–	–	500 to 1500	< 200	1500 to 5000	Cc1cc(Nc2ncnn3ccc(C4CCN(C(=O)/C=C/CN5CCN(C)CC5)CC4)c23)ccc1Oc1ccn2ncnc2c1 [Example 24, (E)-1-(4-(4-((4-([1,2,4]triazolo[1,5-a]pyridin-7-yloxy)-3-methylphenyl)amino)pyrrolo[2,1-f][1,2,4]triazin-5-yl)piperidin-1-yl)-4-(4-methylpiperazin-1-yl)but-2-en-1-one]
–	–	–	< 200	< 200	1500 to 5000	Cc1cc(Nc2ncnn3ccc(C4CCN(C(=O)/C=C/[C@H]5CCCN5C)CC4)c23)ccc1Oc1ccn2ncnc2c1 [Example 25, (R,E)-1-(4-(4-((4-([1,2,4]triazolo[1,5-a]pyridin-7-yloxy)-3-methylphenyl)amino)pyrrolo[2,1-f][1,2,4]triazin-5-yl)piperidin-1-yl)-3-(1-methylpyrrolidin-2-yl)prop-2-en-1-one]
–	–	–	< 200	< 200	1500 to 5000	Cc1cc(Nc2ncnn3ccc(C4CCN(C(=O)C(F)Cl)CC4)c23)ccc1Oc1ccn2ncnc2c1 (stereo not drawn) [Example 35, 1-(4-(4-((4-([1,2,4]triazolo[1,5-a]pyridin-7-yloxy)-3-methylphenyl)amino)pyrrolo[2,1-f][1,2,4]triazin-5-yl)piperidin-1-yl)-2-chloro-2-fluoroethan-1-one acetate]
–	–	–	1500 to 5000	1500 to 5000	1500 to 5000	Cc1cc(Nc2ncnn3ccc(C4CCN(C(=O)C5CC(=O)N5)CC4)c23)ccc1Oc1ccn2ncnc2c1 (stereo not drawn) [Example 36, 4-(4-(4-((4-([1,2,4]triazolo[1,5-a]pyridin-7-yloxy)-3-methylphenyl)amino)pyrrolo[2,1-f][1,2,4]triazin-5-yl)piperidine-1-carbonyl)azetidin-2-one acetate]
